Tests used:
GABAergic neurons [1] = assay: Current-clamp cortical slice recordings with CNO application; format: cell-based, mice; settings: after CNO, hM3Dq-expressing neurons in cortical slices, 13 neurons
Protocol: Briefly, anesthetized mice receive transcardial perfusion withN-methyl-D-glucamine (NMDG)-aCSF (92 mM NMDG, 2.5 mM KCl, 1.2 mM NaH2PO4, 30 mM NaHCO3, 20 mM N-2-Hydroxyethylpiperazine-N-2-Ethane Sulfonic Acid (HEPES), 25 mM glucose, 2 mM thiourea, 5 mM Na-ascorbate, 3 mM Na-pyruvate, 0.5 mM CaCl2·4H2O, and 10 mM MgSO4·7H2O; adjusted pH to 7.3-7.4 with concentrated HCl), and the brain is gently and rapidly extracted from the skull and then cut into 300 μm-thick sections with a vibratome (Leica VT1200S). […]
Brain slices are then bathed in room-temperature recording aCSF (124 mM NaCl, 2.5 mM KCl, 1.2 mM NaH2PO4, 24 mM NaHCO3, 5 mM HEPES, 12.5 mM glucose, 2 mM CaCl2·4H2O and 2 mM MgSO4·7H2O, ˜25° C.) and whole-cell recordings are made at the auditory cortex using Multiclamp 700B amplifier (Molecular Devices, www.moleculardevices.com, Menlo Park, California, USA) and Digital 1440A digitizer (Molecular Devices, www.moleculardevices.com, Menlo Park, California, USA). […] 0.3 mL CNO (0.2 mg/mL) is gently infused into the recording chamber (5-7 mL recording aCSF) and recorded for at least 20 minutes. The firing rate is analyzed with Clampfit 11.2 (Molecular Devices, www.moleculardevices.com, Menlo Park, California, USA). […]

GABAergic neurons [2] = assay: CNO administration and in vivo recordings in the auditory cortex; set-up: species or system mice
Protocol: In vivo recordings are performed in the ACs of mice using the same surgery setup described above.
For each time point, an average of six evoked responses is used. The inventors average the LFP amplitudes every six trials (MATLAB), which represents a 1-min recording. The representative waveforms are also plotted with MATLAB (MathWorks.Inc, Natick, US; https://ww2.mathworks.cn/). […] The results are exported into Excel for offline analysis and plotting.
C57BL/6J male mice (6-7 weeks old) are anesthetized with pentobarbital (100 mg/kg) supplemented with atropine (0.05 mg/kg, Sigma). The anesthetized mice are head-fixed using a stereotaxic device (RWD Life Science; Shen Zhen, China; https://www.rwdstco.com/). […] The PHP.eB serotype virus, which readily crosses the BBB for brain transduction, is produced using standard production methods. A glass pipette tip (at an angle of […] to about 45°) is used to slowly touch the surface of the transverse venous sinus with the injection pump running at a slow speed (100 nL/min). After the glass pipette tip penetrates the vessel, the injection speed is increased to 1,000 nL/min. A total of 50 μL of the virus (1.5E12 VGs/kg of body weight, VG, vector genome) is injected.
To verify the CNO administration can suppress the response to the AS through the potentiation of inhibition, electrophysiological recordings of neuronal firing and LFP response to the AS before and after the CNO application are performed.

GABAergic neurons [3] = assay: Laser pulse induced IPSC recording in cortex; format: cell-based, Vgat-Cre mice; settings: hM3Dq and DIO-ChrimsonR-mCherry injected cortex; laser 0.1 Hz; baseline 100.22±0.66%
Text: FIG. 4A is a diagram showing the hM3Dq and DIO-ChrimsonR-mCherry injection into the cortex of Vgat-Cre mice.

[4] = Spontaneous locomotion detection (active time); settings: after CNO administration in two groups
Protocol: The animals are housed separately under a standard 12-h light/dark cycle and stable temperature (23-25° C.) with full access to food and water.
A summation of each pixel value for the difference is used to decide whether the animal moves between these three frames. […] Animal movements are analyzed by the program. The active time for each mouse is determined every 24 h.
The behavioral effects after CNO intervention in the two groups are evaluated.

[5] = hM3Dq mice, n=30 recording sites

With `C[N+]1([O-])CCN(C2=Nc3cc(Cl)ccc3Nc3ccccc32)CC1` [CNO, clozapine-N-oxide] as the compound, how does the “mean highest firing rate in bursts” value (GABAergic neurons [1]) read?
The value was 33.24±2.46 Hz.

And the “duration of activation of the new units after the CNO application” value (GABAergic neurons [2]; hM3Dq mice)?
The value was 25 min.

What about the “number of spike-sorted units after the CNO injection” value (GABAergic neurons [2]; [5]) of the same compound?
Its value is 4.30±0.27.

What about the “number of spike-sorted units before CNO injection” value (GABAergic neurons [2]; [5]) of the same compound?
Its value is 2.73±0.27.

What about the “maximum firing frequency during the bursts of the new units after CNO application” value (GABAergic neurons [2]; n=44 units, mean) of the same compound?
The value was 32.63±3.30 Hz.

What about the “normalized IPSCs amplitude 35-40 min after CNO” value (GABAergic neurons [3]) of the same compound?
The value was 250.62±6.46%.

What about the “side effects (astrocytic reactivity and locomotion)” value [4] of the same compound?
Its value is “not detected”.

— patent publication US20240100190A1, “Brain Disease Therapy Enhancing Inhibition of GABAergic Neurons” (priority 2022, published 2024)
